biological target: human PDE1B enzyme (Homo sapiens (Human), UniProt Q01064); assay: IMAP TR-FRET PDE1B enzymatic assay; format: biochemical; conditions: negative log of half-maximal molar inhibitory concentration; 200 nM FAM-cAMP; values given as bins
Method in brief: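 Full-length GST-tagged human PDE1B (250 pg/well) in IMAP BSA buffer with 10 U/ml calmodulin and 2.5 mM CaCl2; compound pre-incubated 5 min at room temperature, then 200 nM (final) FAM-cAMP for 30 min. IMAP binding reagent/Tb added, 1 h; TR-FRET 520/490 ratio read. IC50 from sigmoidal dose-response fit.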

SMILES | PDE1b (pIC50)
Cc1cnc(CNC(=O)c2c(C)oc3ncnc(NC4(C)CC4)c23)cn1 [Example 460, 6-Methyl-4-[(1-methylcyclopropyl)amino]-N-[(5-methylpyrazin-2-yl)methyl]furo[2,3-d]pyrimidine-5-carboxamide] | >8
Cc1oc2ncnc(NC3(C)CC3)c2c1C(=O)NCc1cnc(C2CC2)nc1 [Example 708, N-[(2-Cyclopropylpyrimidin-5-yl)methyl]-6-methyl-4-[(1-methylcyclopropyl)amino]furo[2,3-d]pyrimidine-5-carboxamide] | >8
Cc1oc2ncnc(NC3(C)CC3)c2c1C(=O)N1CCC(c2cccc(Br)n2)C1 (stereo not shown) [Example 372, 5-[3-(6-Bromopyridin-2-yl)pyrrolidine-1-carbonyl]-6-methyl-N-(1-methylcyclopropyl)furo[2,3-d]pyrimidin-4-amine] | >8
Cc1oc2ncnc(NC3(C)CC3)c2c1C(=O)N1CCC(c2ccc(F)cc2)C1 (stereo not shown) [Example 57, 5-[3-(4-Fluorophenyl)pyrrolidine-1-carbonyl]-6-methyl-N-(1-methylcyclopropyl)furo[2,3-d]pyrimidin-4-amine] | >8
Cc1oc2ncnc(NC3(C)CC3)c2c1C(=O)N1CC=C(c2cnc(C#N)c(F)c2)CC1 [Example 12, 3-Fluoro-5-(1-{6-methyl-4-[(1-methylcyclopropyl)amino]furo[2,3-d]pyrimidine-5-carbonyl}-1,2,3,6-tetrahydropyridin-4-yl)pyridine-2-carbonitrile] | >8
Cc1oc2ncnc(NC3(C)CC3)c2c1C(=O)NCCOc1ccc(F)cc1 [Example 585, N-[2-(4-Fluorophenoxy)ethyl]-6-methyl-4-[(1-methylcyclopropyl)amino]furo[2,3-d]pyrimidine-5-carboxamide] | >8

same assay, conditions: negative log of half-maximal molar inhibitory concentration; 200 nM FAM-cAMP; values given as bins; read-out: PDE1b (pIC50) (converted)

SMILES | IC50 [nM]
Cc1oc2ncnc(NC3(C)CC3)c2c1C(=O)Nc1cnn(-c2ncccc2F)c1 [Example 447, N-[1-(3-Fluoropyridin-2-yl)-1H-pyrazol-4-yl]-6-methyl-4-[(1-methylcyclopropyl)amino]furo[2,3-d]pyrimidine-5-carboxamide] | 10 to 100
Cc1oc2ncnc(NC3(C)CC3)c2c1C(=O)NCC1(C)COC1 [Example 93, 6-Methyl-4-[(1-methylcyclopropyl)amino]-N-[(3-methyloxetan-3-yl)methyl]furo[2,3-d]pyrimidine-5-carboxamide] | 10 to 100
Cc1oc2ncnc(NC3(C)CC3)c2c1C(=O)NCC1(C)CC1 [Example 413, 6-Methyl-4-[(1-methylcyclopropyl)amino]-N-[(1-methylcyclopropyl)methyl]furo[2,3-d]pyrimidine-5-carboxamide] | 10 to 100
Cc1oc2ncnc(NC3(C)CC3)c2c1C(=O)NCc1ccnc(Cl)n1 [Example 677, N-[(2-Chloropyrimidin-4-yl)methyl]-6-methyl-4-[(1-methylcyclopropyl)amino]furo[2,3-d]pyrimidine-5-carboxamide] | 10 to 100
Cc1oc2ncnc(NC3(C)CC3)c2c1C(=O)N1CCC2(C1)C(=O)Nc1ccccc12 (stereo not shown) [Example 392, 1′-{6-Methyl-4-[(1-methylcyclopropyl)amino]furo[2,3-d]pyrimidine-5-carbonyl}-1,2-dihydrospiro[indole-3,3′-pyrrolidine]-2-one] | 10 to 100
Cc1oc2ncnc(NC3(C)CC3)c2c1C(=O)N1CCc2c(ncnc2N(C)C)C1 [Example 791, 5-[4-(Dimethylamino)-5H,6H,7H,8H-pyrido[3,4-d]pyrimidine-7-carbonyl]-6-methyl-N-(1-methylcyclopropyl)furo[2,3-d]pyrimidin-4-amine] | 10 to 100
Cc1oc2ncnc(NC3(C)CC3)c2c1C(=O)NC1CCOCC1 [Example 108, 6-Methyl-4-[(1-methylcyclopropyl)amino]-N-(oxan-4-yl)furo[2,3-d]pyrimidine-5-carboxamide] | 10 to 100
COc1nccc2c1CCN(C(=O)c1c(C)oc3ncnc(NC4(C)CC4)c13)C2 [Example 40, 5-(5-Methoxy-1,2,3,4-tetrahydro-2,6-naphthyridine-2-carbonyl)-6-methyl-N-(1-methylcyclopropyl)furo[2,3-d]pyrimidin-4-amine] | 10 to 100
Cc1oc2ncnc(NC3(C)CC3)c2c1C(=O)N(C)Cc1cccnc1 [Example 215, N,6-Dimethyl-4-[(1-methylcyclopropyl)amino]-N-(pyridin-3-ylmethyl)furo[2,3-d]pyrimidine-5-carboxamide] | 100 to 1000
Cc1oc2ncnc(NC3(C)CC3)c2c1C(=O)NC(C)c1cncnc1 (stereo not shown) [Example 710, 6-Methyl-4-[(1-methylcyclopropyl)amino]-N-[1-(pyrimidin-5-yl)ethyl]furo[2,3-d]pyrimidine-5-carboxamide] | 10 to 100
Cc1oc2ncnc(NC3(C)CC3)c2c1C(=O)NCc1ncc(F)cn1 [Example 292, N-[(5-Fluoropyrimidin-2-yl)methyl]-6-methyl-4-[(1-methylcyclopropyl)amino]furo[2,3-d]pyrimidine-5-carboxamide] | 10 to 100
Cc1oc2ncnc(NC3(C)CC3)c2c1C(=O)NC(C)c1ncc(F)cn1 (stereo not shown) [Example 302, N-[1-(5-Fluoropyrimidin-2-yl)ethyl]-6-methyl-4-[(1-methylcyclopropyl)amino]furo[2,3-d]pyrimidine-5-carboxamide] | 10 to 100
Cc1oc2ncnc(NC3(C)CC3)c2c1C(=O)N1CCc2c(cc[nH]c2=O)C1 [Example 337, 6-{6-Methyl-4-[(1-methylcyclopropyl)amino]furo[2,3-d]pyrimidine-5-carbonyl}-1,2,5,6,7,8-hexahydro-2,6-naphthyridin-1-one] | 10 to 100
Cc1oc2ncnc(NC3(C)CC3)c2c1C(=O)NCc1nnc2ccc(C(F)(F)F)cn12 [Example 463, 6-Methyl-4-[(1-methylcyclopropyl)amino]-N-{[6-(trifluoromethyl)-[1,2,4]triazolo[4,3-a]pyridin-3-yl]methyl}furo[2,3-d]pyrimidine-5-carboxamide] | 10 to 100
Cc1oc2ncnc(NC3(C)CC3)c2c1C(=O)NNc1ncc(F)cn1 [Example 363, N′-(5-Fluoropyrimidin-2-yl)-6-methyl-4-[(1-methylcyclopropyl)amino]furo[2,3-d]pyrimidine-5-carbohydrazide] | 100 to 1000
Cc1oc2ncnc(NC3(C)CC3)c2c1C(=O)NCCO [Example 134, N-(2-Hydroxyethyl)-6-methyl-4-[(1-methylcyclopropyl)amino]furo[2,3-d]pyrimidine-5-carboxamide] | 100 to 1000
Cc1oc2ncnc(NC3(C)CC3)c2c1C(=O)NC(C)c1ccncn1 (stereo not shown) [Example 317, 6-Methyl-4-[(1-methylcyclopropyl)amino]-N-[1-(pyrimidin-4-yl)ethyl]furo[2,3-d]pyrimidine-5-carboxamide] | 10 to 100
COc1cc2c(cn1)CN(C(=O)c1c(C)oc3ncnc(NC4(C)CC4)c13)CC2 [Example 634, 5-(6-Methoxy-1,2,3,4-tetrahydro-2,7-naphthyridine-2-carbonyl)-6-methyl-N-(1-methylcyclopropyl)furo[2,3-d]pyrimidin-4-amine] | 10 to 100
Cc1oc2ncnc(NC3(C)CC3)c2c1C(=O)NC1CCN(c2ccccn2)CC1 [Example 650, 6-Methyl-4-[(1-methylcyclopropyl)amino]-N-[1-(pyridin-2-yl)piperidin-4-yl]furo[2,3-d]pyrimidine-5-carboxamide] | 10 to 100
Cc1oc2ncnc(NC3(C)CC3)c2c1C(=O)NC(C)c1cnccn1 (stereo not shown) [Example 315, 6-Methyl-4-[(1-methylcyclopropyl)amino]-N-[1-(pyrazin-2-yl)ethyl]furo[2,3-d]pyrimidine-5-carboxamide] | 10 to 100
Cc1oc2ncnc(NC3(C)CC3)c2c1C(=O)NC12CC(C1)C2 [Example 430, N-{Bicyclo[1.1.1]pentan-1-yl}-6-methyl-4-[(1-methylcyclopropyl)amino]furo[2,3-d]pyrimidine-5-carboxamide] | 10 to 100
Cc1oc2ncnc(NC3(C)CC3)c2c1C(=O)NCc1nccc(C(F)F)n1 [Example 707, N-{[4-(Difluoromethyl)pyrimidin-2-yl]methyl}-6-methyl-4-[(1-methylcyclopropyl)amino]furo[2,3-d]pyrimidine-5-carboxamide] | 10 to 100
Cc1oc2ncnc(NC3(C)CC3)c2c1C(=O)NC1(CCO)CC1 [Example 297, N-[1-(2-Hydroxyethyl)cyclopropyl]-6-methyl-4-[(1-methylcyclopropyl)amino]furo[2,3-d]pyrimidine-5-carboxamide] | 10 to 100
Cc1oc2ncnc(NC3(C)CC3)c2c1C(=O)NCCOC(C)C [Example 176, 6-Methyl-4-[(1-methylcyclopropyl)amino]-N-[2-(propan-2-yloxy)ethyl]furo[2,3-d]pyrimidine-5-carboxamide] | 10 to 100
Cc1oc2ncnc(NC3(C)CC3)c2c1C(=O)N1Cc2nc(C3CC3)[nH]c(=O)c2C1 [Example 681, 2-Cyclopropyl-6-{6-methyl-4-[(1-methylcyclopropyl)amino]furo[2,3-d]pyrimidine-5-carbonyl}-3H,4H,5H,6H,7H-pyrrolo[3,4-d]pyrimidin-4-one] | 100 to 1000
Cc1oc2ncnc(NC3(C)CC3)c2c1C(=O)N1CC(c2ccc(C#N)cc2)C1 [Example 32, 4-(1-{6-Methyl-4-[(1-methylcyclopropyl)amino]furo[2,3-d]pyrimidine-5-carbonyl}azetidin-3-yl)benzonitrile] | 10 to 100
COc1cccc(-c2cnn(C(=O)c3c(C)oc4ncnc(NC5(C)CC5)c34)c2)c1 [Example 412, 5-[4-(3-Methoxyphenyl)-1H-pyrazole-1-carbonyl]-6-methyl-N-(1-methylcyclopropyl)furo[2,3-d]pyrimidin-4-amine] | 10 to 100
Cc1oc2ncnc(NC3(C)CC3)c2c1C(=O)N1CCN(c2ccc(S(C)(=O)=O)cc2F)CC1C (stereo not shown) [Example 522, 5-[4-(2-Fluoro-4-methanesulfonylphenyl)-2-methylpiperazine-1-carbonyl]-6-methyl-N-(1-methylcyclopropyl)furo[2,3-d]pyrimidin-4-amine] | 10 to 100
